Data published in ChEMBL document CHEMBL1201862, “PubChem BioAssay data set” (2004).
Active and inactive are the calls of the source.

How the values were obtained:
Beta-galactosidase = Beta-galactosidase (Escherichia coli, UniProt Q8VNN2); experiment: PubChem AID 485352; format: functional
Hexokinase-1 = target: T1, Hexokinase-1 (Homo sapiens, UniProt P19367); experiment: hexokinase 1 activators, dose response, selectivity assay for HKDC1 activator project, biochemical (AID 504762); format: functional
T1 sequence (P19367 whole entry): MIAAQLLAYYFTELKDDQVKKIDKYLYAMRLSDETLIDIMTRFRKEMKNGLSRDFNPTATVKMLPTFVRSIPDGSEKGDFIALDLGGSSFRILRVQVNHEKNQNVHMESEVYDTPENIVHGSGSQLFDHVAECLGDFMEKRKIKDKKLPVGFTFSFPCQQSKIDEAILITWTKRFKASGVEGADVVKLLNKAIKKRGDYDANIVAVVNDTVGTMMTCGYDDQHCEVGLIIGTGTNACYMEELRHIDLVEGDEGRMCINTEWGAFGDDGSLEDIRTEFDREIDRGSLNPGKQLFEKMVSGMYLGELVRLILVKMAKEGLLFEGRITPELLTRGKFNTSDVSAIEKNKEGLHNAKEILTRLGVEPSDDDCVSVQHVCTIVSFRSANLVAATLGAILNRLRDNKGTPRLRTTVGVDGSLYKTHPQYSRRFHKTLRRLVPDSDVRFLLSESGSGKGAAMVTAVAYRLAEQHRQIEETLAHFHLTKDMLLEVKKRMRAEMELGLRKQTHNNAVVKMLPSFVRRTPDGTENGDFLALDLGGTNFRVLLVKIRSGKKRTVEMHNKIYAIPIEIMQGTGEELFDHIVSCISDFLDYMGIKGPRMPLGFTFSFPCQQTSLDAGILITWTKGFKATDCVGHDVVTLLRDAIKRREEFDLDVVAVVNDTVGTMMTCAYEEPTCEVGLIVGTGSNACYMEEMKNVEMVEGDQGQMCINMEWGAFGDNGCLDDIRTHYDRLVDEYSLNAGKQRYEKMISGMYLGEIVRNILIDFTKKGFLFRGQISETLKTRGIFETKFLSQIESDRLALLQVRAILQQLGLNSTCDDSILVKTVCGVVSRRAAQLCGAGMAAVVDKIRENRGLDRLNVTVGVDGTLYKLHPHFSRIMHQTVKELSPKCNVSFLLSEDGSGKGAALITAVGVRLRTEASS

[1] = target: T2, Endoribonuclease toxin MazF (Escherichia coli K-12, UniProt P0AE70); experiment: MazF toxin RNase activators, dose response, biochemical, fluorescence, single-stranded RNA substrate, uHTS hits (AID 588481); format: functional
T2 sequence (P0AE70 whole entry): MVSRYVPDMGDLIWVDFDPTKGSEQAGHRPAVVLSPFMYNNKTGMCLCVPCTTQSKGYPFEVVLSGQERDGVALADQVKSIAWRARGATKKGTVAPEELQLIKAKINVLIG

[2] = target: Hepatocyte nuclear factor 4-alpha (Homo sapiens, UniProt P41235); format: functional, cell-based;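 also: biochemical luminescence-based dose-response counterscreen measuring inhibition of HNF4 dimerization, run alongside a screen for blockers of ABHD5–perilipin-5 interaction; split luciferase complementation of HNF4 fusion proteins in cell lysate measuring dimerization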
Sequence of Hepatocyte nuclear factor 4-alpha (P41235 whole entry, the tested form may be a part): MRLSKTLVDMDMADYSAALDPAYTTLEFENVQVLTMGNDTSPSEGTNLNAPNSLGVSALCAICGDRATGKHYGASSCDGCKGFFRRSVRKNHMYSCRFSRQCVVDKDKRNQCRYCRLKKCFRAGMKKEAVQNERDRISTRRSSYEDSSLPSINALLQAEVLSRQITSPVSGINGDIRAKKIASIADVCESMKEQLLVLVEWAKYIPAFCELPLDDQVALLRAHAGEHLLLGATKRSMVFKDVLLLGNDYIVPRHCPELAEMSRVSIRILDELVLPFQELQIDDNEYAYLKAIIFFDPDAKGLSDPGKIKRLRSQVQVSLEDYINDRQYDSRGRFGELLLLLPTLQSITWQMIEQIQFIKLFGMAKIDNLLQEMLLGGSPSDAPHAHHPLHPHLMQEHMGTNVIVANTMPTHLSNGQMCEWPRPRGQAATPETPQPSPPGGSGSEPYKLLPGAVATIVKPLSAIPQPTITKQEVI

Vero = experiment: cells; format: functional; details: Chlorocebus sabaeus
[3] = target: T3, Zinc finger protein mex-5 (Caenorhabditis elegans, UniProt Q9XUB2); experiment: MEX-5/TCR-2 RNA interaction inhibitors, dose response, biochemical, C. elegans, fluorescence polarization (AID 1960)
T3 sequence (Q9XUB2 whole entry): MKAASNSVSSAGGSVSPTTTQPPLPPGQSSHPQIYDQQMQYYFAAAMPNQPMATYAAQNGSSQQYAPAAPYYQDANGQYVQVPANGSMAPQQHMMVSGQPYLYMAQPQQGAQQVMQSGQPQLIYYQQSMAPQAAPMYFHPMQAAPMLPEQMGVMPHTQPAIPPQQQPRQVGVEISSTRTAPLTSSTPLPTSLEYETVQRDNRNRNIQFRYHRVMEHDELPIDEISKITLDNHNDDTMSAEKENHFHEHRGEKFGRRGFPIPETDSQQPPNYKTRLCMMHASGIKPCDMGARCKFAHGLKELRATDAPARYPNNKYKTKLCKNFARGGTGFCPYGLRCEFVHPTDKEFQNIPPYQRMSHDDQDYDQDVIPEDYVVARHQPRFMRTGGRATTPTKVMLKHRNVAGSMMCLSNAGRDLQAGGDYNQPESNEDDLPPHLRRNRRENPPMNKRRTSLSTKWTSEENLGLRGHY

Hexokinase HKDC1 = target: T4, Hexokinase HKDC1 (Homo sapiens, UniProt Q2TB90); experiment: HKDC1 hexokinase activators, dose response, biochemical, W721R variant (AID 504730); format: functional
T4 sequence (Q2TB90 whole entry): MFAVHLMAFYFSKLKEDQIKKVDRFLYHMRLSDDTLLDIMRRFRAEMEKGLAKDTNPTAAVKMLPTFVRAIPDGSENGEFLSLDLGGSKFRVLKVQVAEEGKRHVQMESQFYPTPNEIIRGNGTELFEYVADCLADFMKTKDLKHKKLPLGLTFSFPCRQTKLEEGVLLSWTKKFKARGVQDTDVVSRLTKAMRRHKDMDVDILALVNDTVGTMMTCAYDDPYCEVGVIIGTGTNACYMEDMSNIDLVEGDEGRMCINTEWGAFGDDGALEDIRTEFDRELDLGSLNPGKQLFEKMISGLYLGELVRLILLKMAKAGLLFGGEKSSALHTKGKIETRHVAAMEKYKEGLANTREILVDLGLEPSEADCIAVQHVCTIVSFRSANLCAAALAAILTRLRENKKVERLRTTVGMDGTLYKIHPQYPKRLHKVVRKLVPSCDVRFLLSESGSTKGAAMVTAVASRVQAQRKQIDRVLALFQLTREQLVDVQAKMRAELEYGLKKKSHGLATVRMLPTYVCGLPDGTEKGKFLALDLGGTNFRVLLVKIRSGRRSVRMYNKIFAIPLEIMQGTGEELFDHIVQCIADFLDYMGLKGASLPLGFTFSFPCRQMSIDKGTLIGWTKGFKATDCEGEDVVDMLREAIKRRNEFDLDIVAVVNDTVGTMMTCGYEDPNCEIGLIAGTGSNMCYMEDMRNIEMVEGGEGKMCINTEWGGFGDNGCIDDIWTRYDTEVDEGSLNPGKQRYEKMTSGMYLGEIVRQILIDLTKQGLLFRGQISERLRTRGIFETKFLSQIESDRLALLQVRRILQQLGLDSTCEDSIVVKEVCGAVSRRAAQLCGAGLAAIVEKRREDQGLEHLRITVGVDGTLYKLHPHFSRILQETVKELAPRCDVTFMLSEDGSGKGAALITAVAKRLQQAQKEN

[4] = target: T5, Type-1 angiotensin II receptor (Homo sapiens, UniProt P30556); experiment: AT1 receptor antagonists, dose response, selectivity assay for APJ receptor antagonist project, cell-based, uHTS hits (AID 463214); format: functional;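 also: antagonist potency against angiotensin II stimulated AT1 response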
T5 sequence (P30556 whole entry): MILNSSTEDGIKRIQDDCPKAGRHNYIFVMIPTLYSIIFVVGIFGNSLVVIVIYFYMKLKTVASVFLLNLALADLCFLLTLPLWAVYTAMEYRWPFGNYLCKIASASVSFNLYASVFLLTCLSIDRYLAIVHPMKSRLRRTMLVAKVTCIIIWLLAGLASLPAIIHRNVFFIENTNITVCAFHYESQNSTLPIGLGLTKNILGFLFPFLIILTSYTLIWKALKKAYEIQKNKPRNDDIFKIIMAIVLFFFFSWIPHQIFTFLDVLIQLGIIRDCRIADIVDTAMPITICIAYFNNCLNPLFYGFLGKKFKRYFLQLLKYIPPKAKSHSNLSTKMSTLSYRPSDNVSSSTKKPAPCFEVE

[5] = target: T2, Endoribonuclease toxin MazF; experiment: fluorescent RNA oligo signal without MazF, dose response, counter-screen for MazEF activator project, biochemical, fluorescence, single-stranded RNase substrate (AID 588502); format: functional
[6] = target: T6, RNA-binding protein pos-1 (Caenorhabditis elegans, UniProt G5EF15); experiment: inhibitors of POS-1/mex-3 RNA binding, dose response, biochemical, fluorescence polarization (AID 1964);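 also: purified POS-1 fused to maltose binding protein made in E. coli; potency of compounds blocking POS-1 binding to fluorescent RNA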
T6 sequence (G5EF15 whole entry): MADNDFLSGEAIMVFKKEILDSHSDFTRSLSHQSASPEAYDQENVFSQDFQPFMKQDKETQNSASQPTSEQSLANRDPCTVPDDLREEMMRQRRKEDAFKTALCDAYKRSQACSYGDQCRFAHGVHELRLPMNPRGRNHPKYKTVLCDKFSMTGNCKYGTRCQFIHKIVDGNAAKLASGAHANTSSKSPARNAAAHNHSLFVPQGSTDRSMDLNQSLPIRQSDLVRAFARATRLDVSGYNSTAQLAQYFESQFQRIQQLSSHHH

Beta-lactamase [7] = target: Beta-lactamase (Salmonella choleraesuis (strain SC-B67), UniProt Q5J463); experiment: Epi-absorbance-based counterscreen for selective VIM-2 inhibitors: dose response biochemical high throughput screening assay to identify inhibitors of TEM-1 serine-beta-lactamase.
Sequence of Beta-lactamase (Salmonella choleraesuis (strain SC-B67), UniProt Q5J463) (Q5J463 whole entry): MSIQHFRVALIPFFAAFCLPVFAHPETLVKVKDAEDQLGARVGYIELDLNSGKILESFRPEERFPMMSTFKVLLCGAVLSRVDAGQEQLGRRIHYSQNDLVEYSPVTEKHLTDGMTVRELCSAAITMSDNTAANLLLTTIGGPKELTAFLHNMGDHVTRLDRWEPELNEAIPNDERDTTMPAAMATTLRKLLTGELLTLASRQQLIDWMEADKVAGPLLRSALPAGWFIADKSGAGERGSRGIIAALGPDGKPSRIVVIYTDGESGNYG

Beta-lactamase [8] = target: T7, Beta-lactamase (Pseudomonas aeruginosa, UniProt Q79MP6); experiment: IMP-1 metallo-beta-lactamase inhibitors, dose response, selectivity assay for VIM-2 inhibitor project, biochemical, epi-absorbance (AID 1920)
T7 sequence (Q79MP6 whole entry): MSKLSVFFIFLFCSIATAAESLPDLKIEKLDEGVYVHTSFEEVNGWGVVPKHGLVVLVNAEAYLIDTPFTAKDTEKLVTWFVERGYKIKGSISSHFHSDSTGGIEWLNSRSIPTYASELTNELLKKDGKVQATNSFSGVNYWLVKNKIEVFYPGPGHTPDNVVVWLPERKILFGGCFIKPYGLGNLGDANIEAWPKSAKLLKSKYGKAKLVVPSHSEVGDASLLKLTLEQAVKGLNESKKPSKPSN

Beta-lactamase [9] = target: T7, Beta-lactamase; experiment: […] counterscreen for selective VIM-2 inhibitors: dose response biochemical high throughput screening assay to identify inhibitors of IMP-1 metallo-beta-lactamase.
[10] = target: Tyrosine-protein phosphatase non-receptor type 11 (Homo sapiens, UniProt Q06124); experiment: SHP2 phosphatase inhibition, dose response, selectivity assay for STEP inhibitor project, biochemical (AID 602367); format: functional; details: read-out: IC50_Mean
Sequence of Tyrosine-protein phosphatase non-receptor type 11 (Q06124 whole entry): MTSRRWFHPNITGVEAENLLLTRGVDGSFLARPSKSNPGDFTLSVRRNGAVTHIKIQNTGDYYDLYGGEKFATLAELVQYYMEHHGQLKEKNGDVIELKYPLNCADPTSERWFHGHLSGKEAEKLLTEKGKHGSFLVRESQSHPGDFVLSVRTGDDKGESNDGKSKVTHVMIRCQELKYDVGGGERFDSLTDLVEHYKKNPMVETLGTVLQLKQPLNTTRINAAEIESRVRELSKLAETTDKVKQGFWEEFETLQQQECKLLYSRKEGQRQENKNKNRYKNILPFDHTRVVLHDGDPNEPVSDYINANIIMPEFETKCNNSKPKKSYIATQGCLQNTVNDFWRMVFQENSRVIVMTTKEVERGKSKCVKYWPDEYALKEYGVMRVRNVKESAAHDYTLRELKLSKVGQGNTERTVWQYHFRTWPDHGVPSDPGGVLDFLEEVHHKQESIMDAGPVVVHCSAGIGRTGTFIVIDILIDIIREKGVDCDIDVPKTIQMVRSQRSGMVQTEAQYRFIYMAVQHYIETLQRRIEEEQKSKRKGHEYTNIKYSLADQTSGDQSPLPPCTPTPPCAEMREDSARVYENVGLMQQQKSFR

[11] = target: Dual specificity protein phosphatase 3 (Homo sapiens, UniProt P51452); experiment: VHR phosphatase inhibition, dose response, selectivity assay for STEP inhibitor project, biochemical (AID 602374); format: functional; details: read-out: IC50_Mean
Sequence of Dual specificity protein phosphatase 3 (P51452 whole entry): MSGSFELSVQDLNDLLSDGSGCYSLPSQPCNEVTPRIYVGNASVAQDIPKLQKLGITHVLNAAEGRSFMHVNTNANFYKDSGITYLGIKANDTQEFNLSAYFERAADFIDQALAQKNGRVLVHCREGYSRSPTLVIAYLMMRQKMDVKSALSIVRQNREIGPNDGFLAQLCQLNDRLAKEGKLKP

[12] = target: T8, Tyrosine-protein phosphatase non-receptor type 22 (Homo sapiens, UniProt Q9Y2R2); experiment: PTPN22 phosphatase inhibition, dose response, selectivity assay for STEP inhibitor project, biochemical (AID 624241); format: functional
T8 sequence (Q9Y2R2 whole entry): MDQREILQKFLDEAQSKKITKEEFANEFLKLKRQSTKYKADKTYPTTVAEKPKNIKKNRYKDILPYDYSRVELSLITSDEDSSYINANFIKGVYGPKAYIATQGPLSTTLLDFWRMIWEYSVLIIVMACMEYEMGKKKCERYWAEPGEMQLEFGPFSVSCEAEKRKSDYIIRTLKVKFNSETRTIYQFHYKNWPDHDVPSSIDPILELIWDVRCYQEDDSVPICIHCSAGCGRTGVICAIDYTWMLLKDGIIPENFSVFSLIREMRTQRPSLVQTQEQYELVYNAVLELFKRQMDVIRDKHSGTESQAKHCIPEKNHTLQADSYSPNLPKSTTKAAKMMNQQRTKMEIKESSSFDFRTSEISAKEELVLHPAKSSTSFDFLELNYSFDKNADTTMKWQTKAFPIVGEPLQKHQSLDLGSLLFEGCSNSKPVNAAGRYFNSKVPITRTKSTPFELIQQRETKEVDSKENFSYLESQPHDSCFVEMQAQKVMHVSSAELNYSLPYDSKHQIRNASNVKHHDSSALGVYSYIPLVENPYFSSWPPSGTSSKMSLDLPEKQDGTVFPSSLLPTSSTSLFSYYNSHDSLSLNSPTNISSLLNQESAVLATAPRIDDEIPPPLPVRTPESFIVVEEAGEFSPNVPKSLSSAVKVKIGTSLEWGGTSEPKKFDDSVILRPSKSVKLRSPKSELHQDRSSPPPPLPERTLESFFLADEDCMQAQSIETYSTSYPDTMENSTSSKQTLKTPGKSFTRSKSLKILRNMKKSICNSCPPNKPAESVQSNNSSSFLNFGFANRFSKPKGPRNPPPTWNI

[13] = target: Tyrosine-protein phosphatase non-receptor type 5 (Homo sapiens, UniProt P54829); experiment: STEP phosphatase inhibitors, confirmation, biochemical, fluorescence intensity, uHTS hits (AID 602372); format: functional; details: read-out: IC50_Mean
Sequence of Tyrosine-protein phosphatase non-receptor type 5 (P54829 whole entry): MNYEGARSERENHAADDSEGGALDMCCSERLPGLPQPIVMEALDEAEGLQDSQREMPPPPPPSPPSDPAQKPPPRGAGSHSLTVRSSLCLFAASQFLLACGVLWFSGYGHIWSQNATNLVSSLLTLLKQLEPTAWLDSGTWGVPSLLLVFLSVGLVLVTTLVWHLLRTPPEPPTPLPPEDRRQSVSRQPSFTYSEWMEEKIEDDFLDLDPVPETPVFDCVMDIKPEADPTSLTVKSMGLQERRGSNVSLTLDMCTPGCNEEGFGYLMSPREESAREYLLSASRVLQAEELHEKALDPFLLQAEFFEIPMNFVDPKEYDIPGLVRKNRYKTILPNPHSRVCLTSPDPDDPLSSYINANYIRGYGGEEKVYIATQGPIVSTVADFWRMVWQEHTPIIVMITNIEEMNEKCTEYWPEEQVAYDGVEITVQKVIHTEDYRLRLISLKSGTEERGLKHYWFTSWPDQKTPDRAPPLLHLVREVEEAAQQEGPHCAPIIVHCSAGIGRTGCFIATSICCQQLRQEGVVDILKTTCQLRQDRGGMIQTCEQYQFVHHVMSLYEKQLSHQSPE

[14] = target: 5-hydroxytryptamine receptor 2A (Mus musculus, UniProt P35363); format: functional, cell-based;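 also: CHO-K1 cells with tagged receptor and beta-arrestin; agonist potency measured as compound-induced activation of the receptor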
Sequence of 5-hydroxytryptamine receptor 2A (P35363 whole entry): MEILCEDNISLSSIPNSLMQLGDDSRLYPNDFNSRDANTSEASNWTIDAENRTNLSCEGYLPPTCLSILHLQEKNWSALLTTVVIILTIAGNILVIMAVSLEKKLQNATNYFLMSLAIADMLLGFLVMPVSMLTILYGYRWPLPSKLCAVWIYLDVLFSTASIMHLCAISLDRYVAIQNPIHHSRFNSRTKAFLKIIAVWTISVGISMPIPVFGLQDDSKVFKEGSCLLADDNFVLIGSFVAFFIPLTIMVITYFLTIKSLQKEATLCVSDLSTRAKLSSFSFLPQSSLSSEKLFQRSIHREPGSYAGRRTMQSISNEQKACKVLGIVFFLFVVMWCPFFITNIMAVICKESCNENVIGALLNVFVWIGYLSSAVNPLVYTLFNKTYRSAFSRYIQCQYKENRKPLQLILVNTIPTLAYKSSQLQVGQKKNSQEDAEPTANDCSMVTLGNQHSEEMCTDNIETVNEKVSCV

Mu-type opioid receptor = Mu-type opioid receptor (Homo sapiens, UniProt P35372); format: functional, cell-based;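 also: U2OS cells with beta-arrestin recruitment to OPRM1 by beta-gal complementation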
Sequence of Mu-type opioid receptor (P35372 whole entry): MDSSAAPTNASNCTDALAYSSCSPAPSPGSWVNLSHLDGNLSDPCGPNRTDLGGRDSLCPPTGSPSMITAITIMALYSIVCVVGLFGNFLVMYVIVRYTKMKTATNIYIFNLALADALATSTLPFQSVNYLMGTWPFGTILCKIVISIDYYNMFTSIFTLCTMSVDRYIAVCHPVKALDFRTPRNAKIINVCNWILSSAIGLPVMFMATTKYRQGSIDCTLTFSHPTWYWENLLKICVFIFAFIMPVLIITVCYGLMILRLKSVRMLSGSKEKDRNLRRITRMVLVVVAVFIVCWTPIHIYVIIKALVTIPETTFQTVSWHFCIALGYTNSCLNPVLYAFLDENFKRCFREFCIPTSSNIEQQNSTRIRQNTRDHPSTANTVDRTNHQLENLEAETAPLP

Sequence of Beta-galactosidase (Q8VNN2 whole entry): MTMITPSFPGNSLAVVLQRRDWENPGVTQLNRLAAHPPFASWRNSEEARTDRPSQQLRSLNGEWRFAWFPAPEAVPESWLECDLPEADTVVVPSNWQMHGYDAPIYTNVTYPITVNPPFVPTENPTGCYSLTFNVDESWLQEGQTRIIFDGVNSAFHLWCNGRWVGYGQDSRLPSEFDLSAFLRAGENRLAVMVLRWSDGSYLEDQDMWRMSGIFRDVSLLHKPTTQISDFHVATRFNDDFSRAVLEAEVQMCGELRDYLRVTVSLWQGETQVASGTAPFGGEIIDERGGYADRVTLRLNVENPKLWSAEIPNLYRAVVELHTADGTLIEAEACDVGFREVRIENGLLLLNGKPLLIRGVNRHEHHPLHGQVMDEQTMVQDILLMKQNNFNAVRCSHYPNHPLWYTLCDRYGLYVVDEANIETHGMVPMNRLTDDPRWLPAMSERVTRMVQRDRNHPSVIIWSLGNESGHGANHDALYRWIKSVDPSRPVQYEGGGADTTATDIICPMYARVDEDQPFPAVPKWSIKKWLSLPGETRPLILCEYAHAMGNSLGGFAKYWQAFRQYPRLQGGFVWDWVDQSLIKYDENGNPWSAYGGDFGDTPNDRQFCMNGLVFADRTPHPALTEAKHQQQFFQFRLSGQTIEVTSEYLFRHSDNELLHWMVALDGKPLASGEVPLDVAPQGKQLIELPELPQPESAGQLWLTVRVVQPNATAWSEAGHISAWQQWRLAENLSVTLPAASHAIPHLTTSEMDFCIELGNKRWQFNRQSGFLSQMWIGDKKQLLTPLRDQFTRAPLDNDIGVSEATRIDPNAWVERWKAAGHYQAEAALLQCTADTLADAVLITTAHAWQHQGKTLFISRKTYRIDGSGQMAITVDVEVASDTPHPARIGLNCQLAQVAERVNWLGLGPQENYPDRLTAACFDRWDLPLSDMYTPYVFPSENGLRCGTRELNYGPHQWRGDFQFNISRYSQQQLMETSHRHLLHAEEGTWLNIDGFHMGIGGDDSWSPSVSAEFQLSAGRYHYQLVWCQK

## CC(=O)C1=C(c2cccc([N+](=O)[O-])c2)N(C(C)=O)n2c(C)nnc2S1
Beta-galactosidase
  EC50: 15 µM (active)
Hexokinase-1
  EC50: 6.54 µM (active)
[1]
  EC50: 20.5 µM (inactive)
[2]
  IC50: 4.27 µM (active)
Vero
  CC50: 24.4 µM (active)
[3]
  EC50: > 300 µM (inconclusive)
Hexokinase HKDC1
  EC50: 8.32 µM (active)
[4]
  IC50: 8.72 µM (active)
[5]
  EC50: 45.2 µM (inactive)
[6]
  EC50: 44.2 µM (active)

## CCN(CC)C(=O)CSc1nc2ccc(NC(=O)CSc3nccn3C)cc2s1
Beta-lactamase [7]
  IC50: > 59.6 µM (inactive)
Beta-lactamase [8]
  IC50: > 59.6 µM (inactive)
Beta-lactamase [9]
  IC50: > 59.6 µM (inactive)

## CCC(CC)c1nnc(NC(=O)c2cc(C(=O)OC)cc([N+](=O)[O-])c2)s1
[10]
  IC50: 2.28 µM (active)
[11]
  IC50: 0.567 µM (active)
[12]
  IC50: 75.6 µM (inactive)
[13]
  IC50: 8.62 µM (active)

## COc1ccc(C)cc1NC(=O)CCN1CCN(c2ccccc2F)CC1
[14]
  EC50: 76.1 µM (inactive)
Mu-type opioid receptor
  EC50: 92.5 µM (inactive)
